Values quoted from earlier work as cited in article PMC10386743, “Application of Ligand- and Structure-Based Prediction Models for the Design of Alkylhydrazide-Based HDAC3 Inhibitors as Novel Anti-Cancer Compounds” (Pharmaceuticals, 2023).

Test system: HDAC3
Conditions: 1 µM

| SMILES | HDAC3 inhibition @1 µM [%@1 µM] |
| --- | --- |
| CCCCCCNNC(=O)c1ccc(C)c(NCc2ccccc2)c1 [Compound 71] | 9 |

Same assay, conditions: 10uM

| SMILES | HDAC3 inhibition @10uM [%] |
| --- | --- |
| CCCCCCNNC(=O)c1ccc(C)c(NCc2ccccc2)c1 [Compound 71] | 42 |

Same assay, conditions: experimentally determined

| SMILES | activity on HDAC3 (in words) |
| --- | --- |
| CCCCCCNNC(=O)c1ccc(C)c(NCc2ccccc2)c1 [Compound 71] | did not show significant activity |
| CCCCCCNNC(=O)c1ccc(CNC(C)=O)cc1 [Compound 69] | did not show significant activity |
| CCCNNC(=O)c1ccc(CNC(C)=O)cc1 [Compound 68] | moderate activity |

Same assay, conditions: newly designed compounds

| pIC50 HDAC3 (HDAC3 experimental pIC50) | SMILES |
| --- | --- |
| <5.00 | CCCCCCNNC(=O)c1cnc(NCc2ccc(CNC(C)=O)cc2)nc1 [Compound 84] |
| <5.00 | CCCCCCNNC(=O)c1cnc(NCCc2ccccc2)nc1 [Compound 82] |
| <5.00 | CCCCCCNNC(=O)c1ccc(CNC(C)=O)cc1 [Compound 69] |
| 6.52 | CCCCCCNNC(=O)c1cnc(N2CCN(Cc3cn(C)c4ccccc34)CC2)nc1 [Compound 87] |
| <5.00 | CCCCCCNNC(=O)c1cnc(NCc2cccc3ccccc23)nc1 [Compound 81] |
| 7.00 | CCCCCCNNC(=O)c1cnc(N2CCN(Cc3c[nH]c4ccccc34)CC2)nc1 [Compound 86] |
| 7.04 | CCCNNC(=O)c1ccc(-c2ccc(CNC(C)=O)cc2)cc1 [Compound 64] |
| 5.80 | CCCNNC(=O)c1ccc(CNC(C)=O)cc1 [Compound 68] |
| 7.37 | CCCNNC(=O)c1cnc(NCc2ccccc2)nc1 [Compound 72] |
| 7.24 | CCCNNC(=O)c1cnc(NCc2cc(Cl)ccc2Cl)nc1 [Compound 78] |
| 7.52 | CCCNNC(=O)c1cnc(N2CCN(Cc3c[nH]c4ccccc34)CC2)nc1 [Compound 85] |
| 6.92 | CCCNNC(=O)c1cnc(N2CCN(C)CC2)nc1 [Compound 79] |
| 6.70 | CCCCNNC(=O)c1cnc(NCc2ccccc2)nc1 [Compound 73] |
| 6.00 | CCCCCCNNC(=O)c1cnc(N2CCN(CCc3c[nH]c4ccccc34)CC2)nc1 [Compound 88] |
| 7.09 | CCCNNC(=O)c1cnc(NCc2cccc3ccccc23)nc1 [Compound 75] |
| 6.46 | CCCCNNC(=O)c1ccc(-c2ccc(CNC(C)=O)cc2)cc1 [Compound 65] |
| 5.85 | CCCCCCNNC(=O)c1cnc(N2CCN(CCc3cn(C)c4ccccc34)CC2)nc1 [Compound 89] |

Test system: recombinant human HDAC3
Conditions: recombinant human HDAC3, Boc-Lys(acetyl)-AMC; supplement Ref. [46]

| pIC50 HDAC3 (HDAC3 experimental pIC50) | SMILES |
| --- | --- |
| 8.83 | CCCNNC(=O)c1ccc(CNC(=O)c2cc3ccccc3cn2)cc1 [Compound 15] |
| 9.08 | CCCNNC(=O)c1ccc(CNC(=O)c2cc3cc(F)ccc3o2)cc1 [Compound 7] |
| 9.21 | CCCNNC(=O)c1ccc(CNC(=O)c2cc3cc(Br)ccc3o2)cc1 [Compound 42] |
| 9.29 | CCCNNC(=O)c1ccc(CNC(=O)c2cc3cc(O)ccc3o2)cc1 [Compound 40] |
| 8.99 | CCCNNC(=O)c1ccc(CNC(=O)c2ccc3cnccc3c2)cc1 [Compound 11] |
| 8.88 | CCCNNC(=O)c1ccc(CNC(=O)c2nc3ccccc3s2)cc1 [Compound 12] |
| 8.69 | CCCNNC(=O)c1ccc(CNC(=O)c2cc3cnccc3cn2)cc1 [Compound 19] |
| 8.79 | CCCNNC(=O)c1ccc(CNC(=O)c2cc3cc(F)ccc3[nH]2)cc1 [Compound 17] |
| 9.55 | CCCNNC(=O)c1ccc(CNC(=O)c2cc3cc(OC)ccc3o2)cc1 [Compound 1] |
| 9.05 | CCCNNC(=O)c1ccc(CNC(=O)c2ccc3ccccc3n2)cc1 [Compound 9] |
| 9.21 | CCCNNC(=O)c1ccc(CNC(=O)c2cc3cc(Cl)ccc3o2)cc1 [Compound 5] |
| 8.75 | CCCNNC(=O)c1ccc(CNC(=O)c2cnc3ccccc3c2)cc1 [Compound 18] |
| 9.07 | C#CCOc1ccc2oc(C(=O)NCc3ccc(C(=O)NNCCC)cc3)cc2c1 [Compound 8] |
| 8.81 | CCCNNC(=O)c1ccc(CNC(=O)c2ccc3ccncc3c2)cc1 [Compound 16] |
| 9.36 | CCCNNC(=O)c1ccc(CNC(=O)c2cc3ccccc3[nH]2)cc1 [Compound 4] |
| 8.88 | CCCNNC(=O)c1ccc(CNC(=O)c2cc3cc(Br)ccc3[nH]2)cc1 [Compound 13] |
| 9.18 | CCCNNC(=O)c1ccc(CNC(=O)c2cc3cc(Cl)ccc3[nH]2)cc1 [Compound 6] |
| 9.24 | CCCNNC(=O)c1ccc(CNC(=O)c2cc3cc(OC)ccc3[nH]2)cc1 [Compound 41] |
| 8.84 | CCCNNC(=O)c1ccc(CNC(=O)c2nc3ccccc3[nH]2)cc1 [Compound 14] |

| SMILES | pIC50 HDAC3 (HDAC3 experimental pIC50) |
| --- | --- |
| CCCNNC(=O)c1ccc(CNC(=O)c2cc3ccccc3o2)cc1 [Compound 3] | 9.42 |

Same assay, conditions: recombinant human HDAC3, Boc-Lys(acetyl)-AMC; supplement prints Ref. [48]

| SMILES | pIC50 HDAC3 (HDAC3 experimental pIC50) |
| --- | --- |
| CCCNNC(=O)c1cccc(CNCCc2c(C)[nH]c3ccccc23)c1 [Compound 36] | 6.17 |
| CCCNNC(=O)c1ccc(CNCCc2c(C)[nH]c3ccccc23)cc1 [Compound 26] | 7.70 |
| CCCNNC(=O)/C=C/c1ccc(CNCCc2c(C)[nH]c3ccccc23)cc1 [Compound 2] | 9.55 |
| CCCNNC(=O)c1ccc(OCc2ccccc2)cc1 [Compound 27] | 7.61 |
| CCCNNC(=O)c1ccc(CNCc2ccccc2)cc1 [Compound 30] | 7.01 |
| COC(=O)CCNNC(=O)/C=C/c1ccc(CNCCc2c(C)[nH]c3ccccc23)cc1 [Compound 34] | 6.51 |
| CCCNNC(=O)c1ccc(NCc2ccccc2)cc1 [Compound 22] | 8.21 |

Results, then the compound that gave them:

| pIC50 HDAC3 (HDAC3 experimental pIC50) | SMILES |
| --- | --- |
| 7.11 | CCCNNC(=O)c1ccc(CN(Cc2ccccc2)C(=O)OC(C)(C)C)cc1 [Compound 49] |
| 7.90 | CCCNNC(=O)c1ccc(CN(CCc2c(C)[nH]c3ccccc23)C(=O)OC(C)(C)C)cc1 [Compound 43] |
| 5.30 | CCCNNC(=O)c1cccc(CN(CCc2c(C)[nH]c3ccccc23)C(=O)OC(C)(C)C)c1 [Compound 57] |
| 5.28 | Cc1[nH]c2ccccc2c1CCNCc1ccc(/C=C/C(=O)NNCCN)cc1 [Compound 59] |
| 7.31 | CCCNNC(=O)c1ccc(NC(=O)c2ccccc2)cc1 [Compound 46] |
| 7.46 | Cc1[nH]c2ccccc2c1CCNCc1ccc(/C=C/C(=O)NNCCC#N)cc1 [Compound 45] |
| 7.78 | CCCNNC(=O)/C=C/c1ccc(CN(CCc2c(C)[nH]c3ccccc23)C(=O)OC(C)(C)C)cc1 [Compound 44] |

Same assay, conditions: recombinant human HDAC3, Boc-Lys(acetyl)-AMC; supplement prints Ref. [50]

| SMILES | pIC50 HDAC3 (HDAC3 experimental pIC50) |
| --- | --- |
| CCCNNC(=O)c1ccc(CNC(=O)c2ccccc2)cc1 [Compound 20] | 8.46 |
| CCCNNC(=O)c1ccc(CNC(=O)/C=C/c2ccccc2)cc1 [Compound 10] | 9.02 |
| CCCCNNC(=O)c1cccnc1 [Compound 39] | 5.81 |
| CCCCCCNNC(=O)c1ccc(CNC(=O)c2ccccc2)cc1 [Compound 32] | 6.73 |
| CCNNC(=O)c1ccc(CNC(=O)/C=C/c2ccccc2)cc1 [Compound 25] | 7.71 |
| CCCCNNC(=O)/C=C/c1ccccc1 [Compound 33] | 6.53 |
| CCCCNNC(=O)c1ccc(CNC(=O)/C=C/c2ccccc2)cc1 [Compound 21] | 8.44 |
| CCCCNNC(=O)c1ccc2ccccc2c1 [Compound 37] | 6.05 |
| CCCCCNNC(=O)c1ccc(CNC(=O)c2ccccc2)cc1 [Compound 24] | 7.73 |
| CCCCNNC(=O)c1cccs1 [Compound 38] | 6.04 |
| CCCCNNC(=O)c1ccc(CNC(=O)c2ccccc2)cc1 [Compound 23] | 8.07 |
| CCCCCCCNNC(=O)c1ccc(CNC(=O)c2ccccc2)cc1 [Compound 35] | 6.25 |
| O=C(NCc1ccc(C(=O)NNCC2CC2)cc1)c1ccccc1 [Compound 29] | 7.40 |
| CCCCNNC(=O)c1ccc(OC)cc1 [Compound 31] | 6.80 |
| CCCCCNNC(=O)c1ccc(CNC(=O)/C=C/c2ccccc2)cc1 [Compound 28] | 7.49 |

Second part, the compound after the results:

| pIC50 HDAC3 (HDAC3 experimental pIC50) | SMILES |
| --- | --- |
| < 5.00 | CCCCCCCCCCNNC(=O)c1ccc(CNC(=O)c2ccccc2)cc1 [Compound 63] |
| 6.51 | CCCCNNC(=O)c1ccc(Oc2ccccc2)cc1 [Compound 52] |
| 5.87 | CCCCNNC(=O)c1cc2ccccc2o1 [Compound 54] |
| 6.73 | CCNNC(=O)c1ccc(CNC(=O)c2ccccc2)cc1 [Compound 51] |
| < 5.00 | CC(C)NNC(=O)c1ccc(CNC(=O)c2ccccc2)cc1 [Compound 61] |
| < 5.00 | CCCCNNC(=O)c1cccc2ccccc12 [Compound 60] |
| 5.72 | CCCCNNC(=O)CCc1ccccc1 [Compound 56] |
| < 5.00 | CC/C=N/NC(=O)c1ccc(CNC(=O)c2ccccc2)cc1 [Compound 62] |
| 5.30 | CCCCNNC(=O)c1ccco1 [Compound 58] |
| 7.16 | O=C(NCc1ccc(C(=O)NNCCC(F)(F)F)cc1)c1ccccc1 [Compound 48] |
| 5.81 | C/C=C/CNNC(=O)c1ccc(CNC(=O)c2ccccc2)cc1 [Compound 55] |
| 7.17 | CCCCNNC(=O)c1ccc(-c2ccccc2)cc1 [Compound 47] |
| 7.07 | O=C(NCc1ccc(C(=O)NNCC2CCC2)cc1)c1ccccc1 [Compound 50] |
| 5.96 | CCCCCCCCNNC(=O)c1ccc(CNC(=O)c2ccccc2)cc1 [Compound 53] |
